Earlier results on two compounds are cited in patent US5284873A (priority 1991, dated 1994).

The test system of the series is prostate. The conditions noted are these: treatment of the α-receptors with antagonists.

Turning to `COc1cc2nc(N3CCN(C(=O)c4ccco4)CC3)nc(N)c2cc1OC` [prazosin], the “improvement in prostate patients” value is listed as “effective improvement”.

As to `CC(COc1ccccc1)N(CCCl)Cc1ccccc1` (centres unmarked) [phenoxybenzamine], the “improvement in prostate patients” value is “effective improvement”.
